From US12209060B2, “Ketamine derivatives and compositions thereof” (XWPHARMA LTD., priority 2018, dated 2025)
Like-named read-outs stand apart in the source and are kept apart here.

Tests used:
[1] = cited from earlier work; for Cmax / Tmax / oral bioavailability: humans, orally administered 50 mg tablet, Yanagihara et al. 2003
In vivo Rat PK Studies = experiment: In vivo Rat PK Studies; parameters: species or system rats; settings: oral; bioavailability with respect to S-ketamine; oral dose level 5 μmol/kg to 160 μmol/kg
Procedure: (§1) In vivo Mouse/Rat PK Studies: Pharmacokinetic profiles of the test compounds were evaluated in mice and rats […] (S-ketamine or prodrugs) administration. The oral dose level was 5 μmol/kg to 160 μmol/kg administered at a volume of 10 mL/kg. Blood samples were collected from the facial veins using heparinated tubes at pre-dose and 0.05, 0.17, 0.5, 1, 2, 3, 4, 6, and 8 hours post-dose following intravenous administration, and withdrawn at pre-dose and 0.17, 0.5, 1, 2, 3, 4, 5, 6, and 8 hours post-dose following oral administration. In each mouse PK study, mice were sub-grouped for a sparse sampling strategy. Each mouse provided two blood samples at different collection times. Blood samples were collected from alternating groups of three mice per time point.
(§2) Non-compartmental analysis was performed to generate parameter estimates.

[2] = Whole blood stability (ketamine formation), rat; type: in vitro ADME; settings: 3 μM, 37° C., up to 60 min, ketamine formed, S-ketamine = 100
Procedure: Whole Blood Stability Assay: Test compounds were incubated in 37° C. pre-warmed rat whole blood at 3 μM (final acetonitrile concentration 1%) for up to 60 min at 37° C. One-hundred 100 μL aliquots of spiked sample solutions were taken at pre-defined time points (0 to 60 min) post incubation, and were immediately extracted by adding 5 volumes of extraction solvent and then centrifuged at 20,000×g for 5 min. The supernatant fractions were analyzed with LC-MS/MS for the amount of the test compound remaining and ketamine.

In vivo Mouse PK Studies = experiment: In vivo Mouse PK Studies; parameters: species or system mice; settings: oral; bioavailability with respect to S-ketamine; oral dose level 5 μmol/kg to 160 μmol/kg
Procedure: as §1, §2

[3] = Whole blood stability (ketamine formation), dog; type: in vitro ADME; settings: ketamine formed, S-ketamine = 100
[4] = In vivo Monkey PK studies; settings: for AUC(0-∞) / Cmax: S-ketamine in blood
Procedure: The de-proteinized samples were temporarily held in ice following by storing at −70° C. before bioanalysis.
(§3) Bio-Analysis: Samples were monitored for parent compound disappearance and ketamine formation in multi-reaction monitoring (MRM) mode by LC-MS/MS system. The mobile phase was performed at a constant flow rate of 0.8 mL/min using a binary solvent system: Solvent A, de-ionized water containing 0.10% formic acid, and Solvent B, methanol containing 0.10% formic acid. MRM data were acquired, and the chromatograms were integrated using Quant Wizard of the version 1.5.2 software (Analyst Software from ABI). A weighted (1/x or 1/x^2) linear regression was used to generate the calibration curve from standards and to calculate the sample concentrations.
(§4) Pharmacokinetic Data Analysis: The pharmacokinetic parameters were estimated for each subject using the Phoenix™ WinNonlin program, version 6.3 (Phoenix WinNonlin© 2012, Pharsight Corporation, Mountain View, CA). Non-compartmental analysis was performed to generate parameter estimates. The terminal elimination rate constant (λ) was obtained, where possible, by linear regression of the terminal elimination phase of a log-linear plot of the blood concentration-time data. The criteria for λ acceptance were regression of at least three time points from the terminal elimination phase and r^2≥0.85. Half-life was defined as not determined (ND) if the criteria could not be met. Nominal time was used for t1/2 and AUC calculations. The apparent blood terminal elimination half-life (t1/2) was calculated according to the following formula: t1/2=ln(2)/λ. The observed maximum blood concentration (Cmax) and the time to reach the maximum blood concentration (Tmax) were obtained by visual inspection of the experimental data. The area under the blood concentration-time curve of ketamine from time 0 to the last measurable concentration (AUC(0-Last)) was determined by the linear trapezoidal method. The area under the blood concentration-time curve from time 0 to infinity (AUC(0-∞)) was determined by AUC(0-Last)+CLast/λ, in which CLast was the concentration corresponding to the time point of last measurable concentration (TLast).

[5] = Whole blood stability (ketamine formation), human; type: in vitro ADME; settings: ketamine formed, S-ketamine = 100
[6] = Whole blood stability (ketamine formation), monkey; type: in vitro ADME; settings: ketamine formed, S-ketamine = 100
In vivo Dog PK Studies = settings: for AUC(0-last) / Cmax: S-ketamine in blood
Procedure: In vivo Dog PK Studies: Three male Beagle dogs were housed individually. Dogs in the oral administration groups were fasted overnight before treatment but with free access to water. Dogs in the IV groups had free access to food and water. For S-ketamine HCl salt, a single dose of […] was administered to each dog via intravenous (IV) administration. The vehicle used for S-ketamine HCl salt was saline. For other test compounds, a single dose of each test compound was administered to each dog via oral gavage (n=3/group). The vehicles used for dosing the test compounds were dependent on the properties of the test compound. Blood samples were collected at specified time-points (pre-dose, 10 min, 30 min, 1 h, 2 h, 3 h, 4 h, 5 h, 6 h, 8 h, post-dose) following administration to individual dogs within IV and PO group. To prevent compound degradation, drawn blood samples were immediately mixed in a ratio of 1:3 (v/v) with acetonitrile (containing 0.1% formic acid). The de-proteinized samples were temporarily held in ice following by storing at −70° C. before bioanalysis. The concentrations of analytes in the blood were determined by LC-MS/MS. Various pharmacokinetic parameters were calculated using Phoenix™ WinNonlin® software. To quantify the bioconversion efficiency of the test compounds in the circulation system, the bioavailability of S-ketamine after PO administration was calculated.
as §3, §4

[7] = Whole blood stability (ketamine formation), mouse; type: in vitro ADME; settings: ketamine formed, S-ketamine = 100
[8] = oral, bioavailability with respect to S-ketamine (Table 5 summary)

In the case of CN[C@@]1(c2ccccc2Cl)CCCCC1=O [(R)-ketamine], the Cmax [1] is listed as “about 41 ng/mL”, the Tmax [1] is listed as “about 31 min” and the oral bioavailability [1] is listed as “about 18%”.
In the case of CNC1(c2ccccc2Cl)CCCCC1=O (centres unmarked) [Ketamine, 2-(2-chiorophenyl)-2-(methylamino)cyclohexan-1-one], the “oral bioavailability in humans (% F)” value [1] is listed as “about 20%”.
In the case of CN[C@]1(c2ccccc2Cl)CCCCC1=O [S-ketamine], the “Rat F” value (In vivo Rat PK Studies) is reported as 4.9%, the “Rat Ket (%)” value [2] is reported as 100% and the “Mouse F” value (In vivo Mouse PK Studies) is reported as 5.6%. The “Dog Ket (%)” value [3] was 100%, the “AUC(0-∞)” value ([4]; monkeys, IV @5 μmol/kg) was 2.325 µM·h and the Cmax ([4]; monkeys, IV @5 μmol/kg) was 1200 nM. The “AUC(0-∞)” value ([4]; monkeys, PO @10 μmol/kg) was 0.034 µM·h, the Cmax ([4]; monkeys, PO @10 μmol/kg) was 13 nM and the F ([4]; monkeys, PO @10 μmol/kg, bioavailability of S-ketamine) was 0.7%. For the same molecule, the “Monkey F” value [4, 8] was 0.7%, the Cmax [1] was “about 41 ng/mL” and the Tmax [1] was “about 31 min”. For the same molecule, the oral bioavailability [1] was “about 18%”, the “Human Ket (%)” value [5] was 100% and the “Monkey Ket (%)” value [6] was 100%. The “AUC(0-last)” value (In vivo Dog PK Studies; dogs, IV @3.75 μmol/kg) was 0.244 µM·h, the Cmax (In vivo Dog PK Studies; dogs, IV @3.75 μmol/kg) was 669 nM and the “AUC(0-last)” value (In vivo Dog PK Studies; dogs, PO 15 μmol/kg) was 0.017 µM·h. For the same molecule, the Cmax (In vivo Dog PK Studies; dogs, PO 15 μmol/kg) was 9 nM, the F (In vivo Dog PK Studies; dogs, PO 15 μmol/kg, bioavailability of S-ketamine) was 1.8% and the “Dog F” value (In vivo Dog PK Studies; [8]) was 1.8%. The “Mouse Ket (%)” value [7] was 100%.
